The test system of one data set is BMΦ and D1 cells. Briefly: Lipid A-induced IL-1β production (ELISA). The conditions noted are these: lipid A (0.5 µM) stimulation, effect proportional to concentration. The class given is cell-based, Mouse. The protocol:
(§1) • Figure 1. Antagonistic activity of compounds Ia, Ic and Id on lipid A-stimulated cytokine production in BMDC, BMØ and D1 cells. TNFα production was measured in the supernatants 24 h later. From the right: lipid A (0.5µM), cells treated with lipid A alone; DMSO: cells incubated in the presence of complete medium plus DMSO; inhibitor 50 µM, cells treated only with monosaccharides Ia, Ic and Id; other columns, lipid A + compounds […] at increasing doses. The data represent means and standard deviations of triplicate wells. This is a representative of three independent experiments. *, p < 0.05; **, p < 0.01; ***, p< 0.001. • Figure 2. TLR-4 selectivity of monosaccharide Id. […] IL-1β was measured in the supernatants by ELISA. […] Lower panels, TNFα production measured by ELISA 24 h after stimulation with CpG (selective for TLR-9) or PAM3Cys-SK4 (selective for TLR-2) in the presence of compound Id. […] The cells were then analyzed by FACS for the presence of annexin V and propidium iodide (PI) double positive cells. […] NF-kB activation was evaluated in the nuclear extract 2 h later and expressed as optical density (OD) at 450 nm. […] Effect of different doses of compound Id on carrageenan induced edema in mice measured 4h after the exposure and expressed as difference between the paw volume of treated paw versus the contralateral paw. […]
In general terms: ELISA stands for enzyme-linked immunosorbent assay.

Data set [1] can be described thus: Solubility in the aqueous media used in the tests. It counts as physicochemical. The following applies: compared with Ia and Ic.
In another data set the target is T1, human TLR-4A (Homo sapiens, UniProt O00206+Q9Y6Y9).
T1 construct: host or cells: HEK-293 (HEK-293-hTLR-4A)
T1 sequence (O00206 24-839): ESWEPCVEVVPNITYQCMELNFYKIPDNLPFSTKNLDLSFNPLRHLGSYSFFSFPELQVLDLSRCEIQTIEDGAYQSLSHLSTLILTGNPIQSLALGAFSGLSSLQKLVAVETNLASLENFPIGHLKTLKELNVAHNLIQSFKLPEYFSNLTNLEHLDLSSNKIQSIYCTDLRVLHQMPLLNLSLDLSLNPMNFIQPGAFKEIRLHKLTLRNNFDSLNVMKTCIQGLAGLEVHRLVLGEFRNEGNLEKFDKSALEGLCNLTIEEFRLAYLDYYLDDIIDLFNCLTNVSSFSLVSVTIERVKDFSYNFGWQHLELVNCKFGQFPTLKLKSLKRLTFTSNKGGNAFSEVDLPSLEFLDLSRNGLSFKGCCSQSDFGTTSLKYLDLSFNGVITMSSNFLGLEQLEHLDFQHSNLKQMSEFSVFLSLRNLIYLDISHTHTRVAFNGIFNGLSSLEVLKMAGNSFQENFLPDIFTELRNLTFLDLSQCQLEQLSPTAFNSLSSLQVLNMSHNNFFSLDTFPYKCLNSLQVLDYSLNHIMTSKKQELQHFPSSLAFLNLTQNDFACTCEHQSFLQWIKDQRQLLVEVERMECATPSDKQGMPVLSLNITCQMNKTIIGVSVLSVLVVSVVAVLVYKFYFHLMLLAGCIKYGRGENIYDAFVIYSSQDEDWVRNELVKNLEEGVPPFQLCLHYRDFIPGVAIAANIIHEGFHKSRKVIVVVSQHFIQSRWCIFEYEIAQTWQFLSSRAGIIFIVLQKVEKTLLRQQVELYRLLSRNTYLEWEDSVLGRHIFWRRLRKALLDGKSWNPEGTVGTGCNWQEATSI
T1 sequence (Q9Y6Y9 17-160 limits assumed): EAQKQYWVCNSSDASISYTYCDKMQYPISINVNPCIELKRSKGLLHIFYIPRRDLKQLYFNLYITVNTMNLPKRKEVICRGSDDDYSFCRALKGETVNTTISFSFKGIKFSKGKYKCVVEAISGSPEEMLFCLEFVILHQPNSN
Briefly: NF-kB activation in HEK-293 cells transfected with TLR-4, stimulated with lipid A. The conditions noted are these: TLR-4-transfected HEK 293; lipid A (0.5 µM) after pre-exposure to compound; measured 2 h later. The class given is cell-based. On the procedure:
as §1

Another data set has as its target T2, TLR9 (Homo sapiens, UniProt Q9NR96).
T2 construct: host or cells: HEK-293 (HEK-293-hTLR9A)
T2 sequence (Q9NR96 26-1032): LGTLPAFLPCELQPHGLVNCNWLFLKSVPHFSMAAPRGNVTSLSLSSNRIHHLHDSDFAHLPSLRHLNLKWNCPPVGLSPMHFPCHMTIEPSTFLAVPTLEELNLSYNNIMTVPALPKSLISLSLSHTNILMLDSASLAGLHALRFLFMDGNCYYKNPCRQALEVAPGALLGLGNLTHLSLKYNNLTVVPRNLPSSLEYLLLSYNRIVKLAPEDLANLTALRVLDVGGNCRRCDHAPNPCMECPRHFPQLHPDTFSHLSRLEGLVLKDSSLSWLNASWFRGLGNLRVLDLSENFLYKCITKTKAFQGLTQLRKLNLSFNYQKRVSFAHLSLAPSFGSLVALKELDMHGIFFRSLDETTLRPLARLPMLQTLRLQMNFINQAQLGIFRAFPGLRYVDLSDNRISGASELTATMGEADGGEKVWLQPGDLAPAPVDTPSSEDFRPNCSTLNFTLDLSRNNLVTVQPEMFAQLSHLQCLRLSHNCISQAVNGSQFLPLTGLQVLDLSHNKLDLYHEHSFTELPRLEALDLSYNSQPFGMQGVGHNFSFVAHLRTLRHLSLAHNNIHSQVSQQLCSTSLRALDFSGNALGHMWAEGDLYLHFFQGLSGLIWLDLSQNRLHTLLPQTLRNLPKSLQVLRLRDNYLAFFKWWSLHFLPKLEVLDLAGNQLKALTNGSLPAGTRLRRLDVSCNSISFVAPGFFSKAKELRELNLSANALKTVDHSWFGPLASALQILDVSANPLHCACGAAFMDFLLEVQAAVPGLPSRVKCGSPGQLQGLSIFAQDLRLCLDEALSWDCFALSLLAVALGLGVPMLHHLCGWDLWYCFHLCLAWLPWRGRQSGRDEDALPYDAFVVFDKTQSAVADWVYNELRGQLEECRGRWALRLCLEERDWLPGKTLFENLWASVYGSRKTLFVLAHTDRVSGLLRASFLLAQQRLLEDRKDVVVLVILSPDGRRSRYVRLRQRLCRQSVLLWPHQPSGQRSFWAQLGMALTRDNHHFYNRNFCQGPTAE
Briefly: NF-kB activation in HEK-293 cells transfected with TLR9, stimulated with CpG. The class given is cell-based. The conditions noted are these: TLR9-transfected HEK 293; CpG (0.5 µM); maximal dose of 50 µM; measured 2 h later. The protocol:
as §1

With `CCCCCCCCCCCCCCO[C@H]1[C@@H](OC)O[C@H](C[N+](C)(C)C2CCCC2)[C@@H](O)[C@@H]1OCCCCCCCCCCCCCC` [Compound Id, methyl 6-deoxy-6-N,N',N"-dimethylcyclopentylammonium-2,3-di-O-tetradecyl-α-D-glucopyranoside], in the data set with BMΦ and D1 cells, the IL-1β synthesis entry is on record as “inhibited”. For the same molecule, the “solubility in the aqueous media used in the tests” value in data set [1] was “highest solubility”. The NF-kB activation entry is “able to significantly counteract the effect of lipid A” at human TLR-4A and “inactive” on TLR9.

The record behind these values is patent EP1996603B1, “LIPID A ANTAGONISTS WITH ANTI-SEPTIC SHOCK, ANTI-INFLAMMATORY, ANTI-ISCHEMIA AND ANALGESIC ACTIVITY” (Università Degli Studi Di Milano - Bicocca, priority 2006, dated 2007).
